The text below walks through data of patent US20140051679A1, “KINASE INHIBITORS AND METHOD OF TREATING CANCER WITH SAME” (UNIVERISTY HEALTH NETWORKS, priority 2011, published 2014).

Some results are limits rather than exact numbers.

Experiment [1] deals with HCT116 colon cancer cells. Kind of experiment: Cell growth inhibition, Sulforhodamine B assay, HCT116. It is filed as cell-based. To be noted: Homo sapiens, HCT-116, 120 h, 5 days culture, SRB assay, read-out: Cell Line GI50 Range HCT116. In general terms: Sulforhodamine B stains cellular protein and so reports cell mass.
For the next experiment, the target named is T1, Aurora B (Homo sapiens, UniProt Q96GD4).
T1 construct: purchased Invitrogen PV3970
Kind of experiment: Aurora B inhibition assay (Z-Lyte). Conditions: 28 nM Aurora B, 128 μM ATP; read-out: IC50 Ranges Aurora B. It is filed as biochemical. How it is done:
Aurora B inhibition was determined using the Z-Lyte assay kit from Invitrogen. The assay was performed using the recommended manufacturer's instructions with 128 μM ATP and 28 nM Aurora B (Invitrogen cat #PV3970). The % inhibition values were determined according to the manufacturer's directions and IC50 values were obtained using a non-linear 4 point logistic curve fit (XLfit4, IDBS)

In experiment [2] the test system is MDA-MB-231 breast cancer cells. Kind of experiment: Cell growth inhibition, Sulforhodamine B assay, MDA-MB-231. The format is cell-based. Conditions: Homo sapiens, 120 h, 5 days culture, SRB assay, read-out: Cell Line GI50 Range MDA-MB-231.
A further experiment deals with T2, human TTK (Homo sapiens, UniProt P33981).
T2 construct: amino terminal GST fusion of full length human TTK; purchased Invitrogen
T2 sequence (P33981 1-857): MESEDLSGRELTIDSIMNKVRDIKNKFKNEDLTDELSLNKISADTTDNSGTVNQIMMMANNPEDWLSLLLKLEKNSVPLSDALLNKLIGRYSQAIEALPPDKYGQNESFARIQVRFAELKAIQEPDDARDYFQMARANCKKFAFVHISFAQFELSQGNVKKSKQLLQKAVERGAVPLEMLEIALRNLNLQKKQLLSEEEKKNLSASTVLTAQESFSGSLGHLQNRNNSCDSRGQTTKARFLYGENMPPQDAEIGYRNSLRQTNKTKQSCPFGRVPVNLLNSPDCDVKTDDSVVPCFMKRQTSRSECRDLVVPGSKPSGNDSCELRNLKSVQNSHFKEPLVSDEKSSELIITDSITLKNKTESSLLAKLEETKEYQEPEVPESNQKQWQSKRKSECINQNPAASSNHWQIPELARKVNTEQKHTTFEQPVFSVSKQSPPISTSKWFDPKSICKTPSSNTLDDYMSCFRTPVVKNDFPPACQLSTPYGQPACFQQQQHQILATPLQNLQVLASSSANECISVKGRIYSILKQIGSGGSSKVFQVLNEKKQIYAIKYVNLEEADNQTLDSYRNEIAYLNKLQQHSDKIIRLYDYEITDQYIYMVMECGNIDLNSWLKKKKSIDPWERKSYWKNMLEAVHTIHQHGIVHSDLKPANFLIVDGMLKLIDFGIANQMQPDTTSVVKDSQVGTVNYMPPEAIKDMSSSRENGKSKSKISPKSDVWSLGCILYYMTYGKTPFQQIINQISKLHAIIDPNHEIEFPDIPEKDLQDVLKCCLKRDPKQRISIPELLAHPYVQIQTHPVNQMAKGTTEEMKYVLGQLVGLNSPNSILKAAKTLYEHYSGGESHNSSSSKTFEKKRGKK
Kind of experiment: TTK inhibition assay (indirect ELISA). The format is biochemical. Conditions: GST-TTK 0.68 nM, 16 μM ATP; read-out: IC50 Ranges TTK.

Experiment [3] deals with MDA-MB-468 breast cancer cells. Kind of experiment: Cell growth inhibition, Sulforhodamine B assay, MDA-MB-468. Conditions: Homo sapiens, 120 h, 5 days culture, SRB assay, read-out: Cell Line GI50 Range MDA-MB-468. The format is cell-based.
The target in another experiment is T3, human PLK4 (Homo sapiens, UniProt O00444).
T3 construct: amino terminal GST fusion of residues 1-391 of human PLK4; made in house; host or cells: E. coli
T3 sequence (O00444 1-391): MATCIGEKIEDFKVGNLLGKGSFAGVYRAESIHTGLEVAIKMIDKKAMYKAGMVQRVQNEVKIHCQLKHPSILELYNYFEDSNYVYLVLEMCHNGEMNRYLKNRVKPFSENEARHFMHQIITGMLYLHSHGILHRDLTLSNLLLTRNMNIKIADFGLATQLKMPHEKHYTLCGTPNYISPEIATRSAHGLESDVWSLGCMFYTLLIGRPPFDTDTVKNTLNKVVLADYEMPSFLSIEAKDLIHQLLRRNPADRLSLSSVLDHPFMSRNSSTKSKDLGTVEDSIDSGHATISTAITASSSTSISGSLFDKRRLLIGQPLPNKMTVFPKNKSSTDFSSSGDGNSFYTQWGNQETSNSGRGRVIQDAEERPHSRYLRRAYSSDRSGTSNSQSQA
Kind of experiment: PLK4 inhibition assay (indirect ELISA). The format is biochemical. To be noted: GST-PLK4 4 nM, 15 μM ATP; read-out: IC50 Ranges PLK4. How it is done:
Active PLK4 was purified from an E. coli expression system as an amino terminal GST fusion of residues 1-391 of human PLK4. The protein was purified from clarified cell extracts after induction at 15° C. overnight using glutathione sepharose, gel permeation chromatography, and ion exchange (Resource Q). The resulting protein was dephosphorylated with lambda phosphatase (NEB cat#P0753), and resolved from the phosphatase using gluthione sepharose. The dephosphorylated GST-PLK4 was stored in aliquots at −80° C. until use.
PLK4 activity was measured using an indirect ELISA detection system. GST-PLK4 (4 nM) was incubated in the presence of 15 μM ATP (Sigma cat#A7699), 50 mM HEPES-Na^2+ pH 7.5, 10 mM MgCl2, 0.01% Brij 35 (Sigma cat#03-3170), in a 96 well microtitre plate pre-coated with MBP (Millipore cat#30-011). The reaction was allowed to proceed for 30 minutes, followed by 5 washes of the plate with Wash Buffer (phosphate buffered saline supplemented with 0.2% Tween 20), and incubation for 30 minutes with a 1:3000 dilution of primary antibody (Cell Signaling cat#9381). The plate was washed 5 times with Wash Buffer, incubated for 30 minutes in the presence of secondary antibody coupled to horse radish peroxidase (BioRad cat#1721019, 1:3000 concentration), washed an additional 5 times with Wash Buffer, and incubated in the presence of TMB substrate (Sigma cat#T0440). The colourimetric reaction was allowed to continue for 5 minutes, followed by addition of stop solution (0.5 N sulphuric acid), and quantified by detection at 450 nm with either a monochromatic or filter based plate reader (Molecular Devices M5 or Beckman DTX880, respectively).
Compound inhibition was determined at either a fixed concentration (10 μM) or at a variable inhibitor concentration (typically 0.5 μM to 0.001 μM in a 10 point dose response titration). Compounds were pre-incubated in the presence of enzyme for 15 minutes prior to addition of ATP and the activity remaining quantified using the above described activity assay. The % Inhibition of a compound was determined using the following formula; % Inhibition=100×(1-(experimental value−background value)/(high activity control−background value)). The IC50 value was determined using a non-linear 4 point logistic curve fit (XLfit4, IDBS) with the formula; (A+(B/(1+((x/C)̂D)))), where A=background value, B=range, C=inflection point, D=curve fit parameter.

Another experiment relates to HT29 colon cancer cells. Kind of experiment: Cell growth inhibition, Sulforhodamine B assay, HT29. To be noted: Homo sapiens, HT-29, 120 h, 5 days culture, SRB assay, read-out: Cell Line GI50 Range HT29. It is filed as cell-based.

T1 sequence (Q96GD4 whole entry): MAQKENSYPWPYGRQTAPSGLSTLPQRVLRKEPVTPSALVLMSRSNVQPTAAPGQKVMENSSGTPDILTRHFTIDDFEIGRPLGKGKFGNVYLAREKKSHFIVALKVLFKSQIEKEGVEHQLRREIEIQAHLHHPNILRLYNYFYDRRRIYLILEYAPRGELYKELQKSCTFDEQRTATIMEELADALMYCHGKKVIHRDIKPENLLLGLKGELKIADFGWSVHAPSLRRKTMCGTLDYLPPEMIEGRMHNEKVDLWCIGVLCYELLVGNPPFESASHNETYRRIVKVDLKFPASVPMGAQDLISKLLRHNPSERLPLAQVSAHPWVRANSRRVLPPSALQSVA
Experimental for HT29 colon cancer cells: Breast cancer cells (MDA-MB-231, MDA-MB-468), colon cancer cells (HCT116, HT29) and ovarian cancer cells (PA-1, OVCAR-3) were seeded (1000 to 4000 in 80 μl per well depending on the cell growth rate) into 96 well plates 24 hours before compound overlay. Compounds were prepared as 10 mM stock solutions in 100% DMSO which were diluted with DMEM (Dulbecco's Modified Eagle's Medium) cell growth Medium (Invitrogen, Burlington, ON, Canada) containing 10% FBS (Fetal Bovine Serum) to concentrations ranging from 50 nM to 250 μM. Aliquots (20 μl) from each concentration were overlaid to 80 μl of the pre-seeded cells in the 96 well plates to make final concentrations of 10 nM to 50 μM. The cells were cultured for 5 days before the Sulforhodamine B assay (SRB) was performed to determine the compound's cell growth inhibition activity.
Sulforhodamine B (purchased from Sigma, Oakville, ON, Canada) is a water-soluble dye that binds to the basic amino acids of the cellular proteins. Thus, colorimetric measurement of the bound dye provides an estimate of the total protein mass that is related to the cell number. the cells are fixed in situ by gently aspirating off the culture media and adding 50 μl ice cold 10% Trichloroacetic Acid (TCA) per well and incubate at 4° C. for 30-60 min, The plates are washed with water five times and allowed to air dry for 5 min. Addition of 50 μl 0.4% (w/v) SRB solution in 1% (v/v) acetic acid to each well and incubatation for 30 min at RT completes the staining reaction. Following staining, plates are washed four times with 1% acetic acid to remove unbound dye and then allowed to air dry for 5 min. The stain is solubilized with 100 μl of 10 mM Tris pH 10.5 per well. Absorbance is read at 570 nm.
The percentage (%) of relative growth inhibition was calculated by comparing to DMSO treated only cells (100%). […] The GI50 was calculated using GraphPad PRISM software (GraphPad Software, Inc., San Diego, Calif., USA).
Experimental for human TTK: Active TTK was purchased from Invitrogen as an amino terminal GST fusion of full length human TTK.
TTK activity was measured using an indirect ELISA detection system. GST-TTK (0.68 nM) was incubated in the presence of 16 μM ATP (Sigma cat#A7699), 50 mM Hepes pH 7.2, 1 mM EGTA, 10 mM MgCl2, and 0.1% Pluronic in a 96 well microtitre plate pre-coated with amino terminal 6 histidine, sumo tagged TTK (amino acid residues 1-275). The reaction was allowed to proceed for 30 minutes, followed by 5 washes of the plate with Wash Buffer (phosphate buffered saline supplemented with 0.2% Tween 20), and incubation for 30 minutes with a 1:3000 dilution of primary antibody (Cell Signaling cat#9381). The plate was washed 5 times with Wash Buffer, incubated for 30 minutes in the presence of secondary antibody coupled to horse radish peroxidase (BioRad cat#1721019, 1:3000 concentration), washed an additional 5 times with Wash Buffer, and incubated in the presence of TMB substrate (Sigma cat#T0440). The colourimetric reaction was allowed to continue for 5 minutes, followed by addition of stop solution (0.5 N sulphuric acid), and quantified by detection at 450 nm with either a monochromatic or filter based plate reader (Molecular Devices M5 or Beckman DTX880, respectively).
Compounds were pre-incubated in the presence of enzyme for 5 minutes prior to addition of ATP and the activity remaining quantified using the above described activity assay. The % Inhibition of a compound was determined using the following formula; % Inhibition=100×(1−(experimental value−background value)/(high activity control−background value)). The IC50 value was determined using a non-linear 4 point logistic curve fit (XLfit4, IDBS) with the formula; (A+(B/(1+((x/C)̂D)))), where A=background value, B=range, C=inflection point, D=curve fit parameter.

In general, GI50 refers to the concentration that inhibits growth by half. Broadly, the IC50 is the concentration that inhibits the measured activity by half. With `O=C(Nc1ccc2[nH]nc(-c3ccc(N4CCOCC4)cc3)c2c1)C1CCCc2ccccc21` (stereo not drawn) [Example A22, N-(3-(4-morpholinophenyl)-1H-indazol-5-yl)-1,2,3,4-tetrahydronaphthalene-1-carboxamide], the GI50 in experiment [1], in experiment [2] and in experiment [3] was at most 5 µM throughout. Further, the IC50 was 5 to 50 µM on Aurora B, at most 5 µM at human TTK and at most 5 µM at human PLK4.
For `O=C(Nc1ccc2[nH]nc(-c3ccc(CN4CCOCC4)cc3)c2c1)C(c1ccsc1)N1CCCC1` (stereo not drawn) [Example A3, N-(3-(4-(morpholinomethyl)phenyl)-1H-indazol-5-yl)-2-(pyrrolidin-1-yl)-2-(thiophen-3-yl)acetamide], the GI50 in experiment [1], in experiment [2] and in experiment [3] was at most 5 µM each time. Further, the IC50 at Aurora B, on human TTK and at human PLK4 was at most 5 µM throughout.
Consider `O=C(Nc1ccc2[nH]nc(-c3ccc4c(c3)OCCO4)c2c1)C(c1ccsc1)N1CCCC1` (stereo not drawn) [Example A15, N-(3-(2,3-dihydrobenzo[b][1,4]dioxin-6-yl)-1H-indazol-5-yl)-2-(pyrrolidin-1-yl)-2-(thiophen-3-yl)acetamide], for which the GI50 in experiment [1], in experiment [2] and in experiment [3] was at most 5 µM each time. Further, the IC50 on human TTK and at human PLK4 was at most 5 µM in each case.
Regarding `O=C(Nc1ccc2[nH]nc(-c3ccc(CN4CCOCC4)cc3)c2c1)C1CCCc2ccccc21` (stereo not drawn) [Example A23, N-(3-(4-(morpholinomethyl)phenyl)-1H-indazol-5-yl)-1,2,3,4-tetrahydronaphthalene-1-carboxamide], the 50% growth inhibitory concentration (GI50) was at most 5 µM in experiment [1], 5 to 20 µM in experiment [2] and at most 5 µM in experiment [3]. Besides, the IC50 at human TTK and on human PLK4 was at most 5 µM each time.
Turning to `CN(c1ccc(-c2n[nH]c3ccc(NC(=O)C(c4ccsc4)N4CCCC4)cc23)cc1)C1CCOCC1` (stereo not drawn) [Example A78, N-(3-(4-(methyl(tetrahydro-2H-pyran-4-yl)amino)phenyl)-1H-indazol-5-yl)-2-(pyrrolidin-1-yl)-2-(thiophen-3-yl)acetamide], the concentration for 50% growth inhibition (GI50) (in experiment [1]; in experiment [3]; in the experiment with HT29 colon cancer cells) was at most 5 µM throughout. The IC50 at Aurora B, at human TTK and on human PLK4 was at most 5 µM in each case.
On to `O=C(Nc1ccc2[nH]nc(-c3ccc(NC4CCOCC4)cc3)c2c1)C(c1ccsc1)N1CCCC1` (stereo not drawn) [Example A71, 2-(pyrrolidin-1-yl)-N-(3-(4-((tetrahydro-2H-pyran-4-yl)amino)phenyl)-1H-indazol-5-yl)-2-(thiophen-3-yl)acetamide], for which the 50% growth inhibitory concentration (GI50) (in experiment [1]; in experiment [3]; in the experiment with HT29 colon cancer cells) was at most 5 µM each time. Besides, the IC50 on Aurora B, on human TTK and on human PLK4 was at most 5 µM each time.
For the compound `C[C@H]1CCCN1[C@H](C(=O)Nc1ccc2[nH]nc(-c3ccc(N4CCOCC4)cc3)c2c1)c1ccsc1` [Example A47, (S)-2-((S)-2-methylpyrrolidin-1-yl)-N-(3-(4-morpholinophenyl)-1H-indazol-5-yl)-2-(thiophen-3-yl)acetamide], the 50% growth inhibitory concentration (GI50) (in experiment [1]; in experiment [3]; with HT29 colon cancer cells) was at most 5 µM in each case. Moreover, the IC50 at Aurora B, at human TTK and on human PLK4 was at most 5 µM throughout.
As to `C[C@H]1CCCN1[C@H](C(=O)Nc1ccc2[nH]nc(-c3ccc(N4CCOCC4)cc3)c2c1)c1cccs1` [Example A79, (R)-2-((S)-2-methylpyrrolidin-1-yl)-N-(3-(4-morpholinophenyl)-1H-indazol-5-yl)-2-(thiophen-2-yl)acetamide], the GI50 (in experiment [1]; in experiment [3]; with HT29 colon cancer cells) was at most 5 µM in each case. Further, the IC50 at Aurora B, at human TTK and at human PLK4 was at most 5 µM each time.
Take `CN1CCC(Oc2ccc(-c3n[nH]c4ccc(NC(=O)C5c6ccccc6CCN5C)cc34)cc2)CC1` (stereo not drawn) [Example A39, 2-methyl-N-(3-(4-((1-methylpiperidin-4-yl)oxy)phenyl)-1H-indazol-5-yl)-1,2,3,4-tetrahydroisoquinoline-1-carboxamide]: the 50% growth inhibitory concentration (GI50) (in experiment [1]; in experiment [3]; with HT29 colon cancer cells) was at most 5 µM in each case. Further, the IC50 on Aurora B, on human TTK and at human PLK4 was at most 5 µM throughout.
On to `O=C(N[C@H](c1ccccc1)C1CC1)c1ccc2[nH]nc(-c3ccc(N4CCOCC4)cc3)c2c1` [Example A49, (S)—N-(cyclopropyl(phenyl)methyl)-3-(4-morpholinophenyl)-1H-indazole-5-carboxamide], for which the GI50 (in experiment [1]; in experiment [3]; in the experiment with HT29 colon cancer cells) was at most 5 µM throughout. The IC50 at Aurora B, at human TTK and on human PLK4 was at most 5 µM each time.
On to `O=C(Nc1ccc2[nH]nc(-c3ccc4c(c3)OCO4)c2c1)C(c1ccsc1)N1CCCC1` (stereo not drawn) [Example A14, N-(3-(benzo[d][1,3]dioxol-5-yl)-1H-indazol-5-yl)-2-(pyrrolidin-1-yl)-2-(thiophen-3-yl)acetamide], for which the GI50 in experiment [1], in experiment [2] and in experiment [3] was at most 5 µM each time. In addition, the IC50 on human TTK and on human PLK4 was at most 5 µM throughout.
